Reference: PMC10961402, “Safety, tolerability, pharmacokinetics and pharmacokinetic-pharmacodynamic modeling of cetagliptin in patients with type 2 diabetes mellitus” (Frontiers in Endocrinology, 2024)
Read-outs that look alike come from different tables or passages of the source.

Legend:
[1] = target: T1, plasma DPP-4 activity (Homo sapiens, UniProt P27487); assay: Plasma DPP-4 inhibition relative to baseline (fluorescent method, Gly-Pro-7-amide-4-methylcoumarin); type: in vivo; conditions: patients with T2DM; for DPP-4 inhibition TRmax,ss / DPP-4 inhibition TRmax: median (range)
T1 construct: from tissue; host or cells: human plasma (K2-EDTA blood from T2DM patients)
Experimental: Blood samples for DPP-4 activity determination were collected at the same time points as for PK. 1 mL blood samples were collected into blood-collecting tubes containing K2-EDTA. The tubes were placed on ice until centrifugation. The blood samples were centrifuged at 2-8°C, 1500 g for 10 min within 1 hour after blood collection. After centrifugation, the supernatant were evenly divided into two aliquots and stored at -80 ± 10°C. The plasma DPP-4 activity was determined using a fluorescent method with the substrate Gly-Pro-7-amide-4-methylcoumarin. A range of 3-400 µM was covered by the linear calibration.
The degree of inhibition of DPP-4 enzyme activity relative to baseline (DPP-4 inhibition, %) after administration was calculated as the following equation:
DPP−4 inhibition (%)=(1−DPP−4 activity/DPP−4 activity,Baseline)×100

[2] = target: T1, plasma DPP-4 activity; assay: Emax model of plasma concentration vs DPP-4 inhibition; type: in vivo; conditions: patients with T2DM
[3] = test system: plasma active GLP-1; assay: Plasma active GLP-1 concentration change from baseline (ELISA); type: in vivo, human; conditions: patients with T2DM; for GLP-1 Baseline (value before dosing): day 1 before dosing; for increase of plasma active GLP-1 AUEC0-24h compared with placebo group: after multiple dosing; for △GLP-1 TRmax,ss / △GLP-1 TRmax: median (range)
Experimental: Blood samples for GLP-1 activity evaluation were collected at the same time points as for PK. 2 mL blood samples were collected for GLP-1 activity detection (20 μL DPP-4i was added to blood-collecting tubes beforehand). The tubes were placed on ice until centrifugation. The blood samples were centrifuged at 2-8°C, 1500 g for 10 minutes within 1 hour after blood collection. After centrifugation, the blood samples were evenly divided into two aliquots and stored at -80 ± 10°C. Plasma active GLP-1 concentrations were determined using a validated ELISA method. Linear calibration curves were obtained in the concentration range of 0.017-276 pM ([31]).
The change of GLP-1 concentration from baseline (△GLP-1) was calculated as follows:
Δ [GLP-1] = [GLP-1] (t) - [GLP-1] (0)
The calculated parameters for GLP-1 activity were as follows: the baseline GLP-1 value before dosing (Baseline), Rmax, TRmax, AUEC0-t, AUEC0-24h, GLP-1 concentration change at 2 h after lunch (△GLP-1-6h), GLP-1 concentration change at 2 h after dinner (△GLP-1-12h), Rmin on day 14, and the average response on day 14 (Ravg).

[4] = Safety and tolerability assessments (adverse events); type: in vivo, human; conditions: patients with T2DM
Experimental: Safety and tolerability were evaluated by monitoring adverse events (AEs), laboratory tests (including blood routine, urine routine, stool routine, blood biochemical test and coagulation function), vital signs, physical examination, 12-lead electrocardiogram and other indicators. AEs were monitored and collected throughout the study. Descriptive analysis of the type and intensity of AEs were conducted according to NCICTC AE5.0.

[5] = parameters: method as in PMID 34965609; conditions: healthy subjects, cited from earlier work
[6] = test system: DPP-4 activity; conditions: healthy subjects; once-daily oral dose of ≧50 mg, multiple doses; cited from earlier work
[7] = test system: serum DPP-4 activity; parameters: method as in PMID 22686547; conditions: Zucker Diabetic Fatty rats; preclinical studies (data not published); cited from earlier work
[8] = 50 mg oral once daily, day 14, listed as cetagliptin
[9] = 100 mg oral once daily, day 14, listed as cetagliptin
[10] = cetagliptin group (50 or 100 mg, n=20) / sitagliptin group (100 mg, n=8), 14 days

T1 sequence (P27487 39-766 limits assumed): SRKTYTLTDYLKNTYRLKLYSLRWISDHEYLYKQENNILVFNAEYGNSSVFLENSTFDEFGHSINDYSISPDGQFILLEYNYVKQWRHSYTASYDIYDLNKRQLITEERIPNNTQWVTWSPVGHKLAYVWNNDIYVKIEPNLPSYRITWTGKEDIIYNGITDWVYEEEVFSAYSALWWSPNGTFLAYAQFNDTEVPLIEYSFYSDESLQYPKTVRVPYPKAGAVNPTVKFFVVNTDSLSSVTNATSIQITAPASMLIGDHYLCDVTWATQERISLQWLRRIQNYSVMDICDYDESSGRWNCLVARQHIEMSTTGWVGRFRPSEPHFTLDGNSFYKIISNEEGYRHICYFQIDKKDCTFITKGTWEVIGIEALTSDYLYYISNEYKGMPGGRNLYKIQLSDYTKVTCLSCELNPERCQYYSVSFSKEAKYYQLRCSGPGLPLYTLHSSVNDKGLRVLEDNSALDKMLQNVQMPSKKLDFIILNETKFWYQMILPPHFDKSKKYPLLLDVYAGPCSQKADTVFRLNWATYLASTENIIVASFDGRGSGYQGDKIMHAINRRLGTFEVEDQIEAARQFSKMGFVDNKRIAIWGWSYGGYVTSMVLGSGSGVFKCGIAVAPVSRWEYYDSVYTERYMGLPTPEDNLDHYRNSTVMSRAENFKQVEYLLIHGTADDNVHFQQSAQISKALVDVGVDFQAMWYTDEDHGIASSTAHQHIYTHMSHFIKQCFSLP

C[C@@H]1c2cnc(C(F)(F)F)n2CCN1C(=O)C[C@H](N)Cc1cc(F)c(F)cc1F.O=P(O)(O)O [Cetagliptin, cetagliptin]
accumulation ratio of AUEC0-24h of DPP-4 inhibition ([1]; 50 mg once daily): ~1
DPP-4 inhibition AUEC0-24h ([1]; 50 mg oral once daily, day 14): 2010 ± 54.1 h*%
DPP-4 inhibition Rmax,ss ([1]; 50 mg oral once daily, day 14): 89.47 ± 1.12%
DPP-4 inhibition Rmin,ss ([1]; 50 mg oral once daily, day 14): 77.24 ± 4.52%
DUR80% (duration for DPP-4 inhibition rate of >80%) ([1]; 50 mg oral once daily, day 14): 21.9 ± 7.05 h
E24h (DPP-4 inhibition at 24 h postdose) ([1]; 50 mg oral once daily, day 14): 78.43 ± 3.85%
DUR80% (duration for DPP-4 inhibition rate of >80%) [1, 8]: 21.9 h
DPP-4 inhibition TRmax,ss ([1]; 50 mg oral once daily, day 14): 2.00 (0.500-6.00) h
DPP-4 inhibition AUEC0-24h ([1]; 50 mg oral, day 1): 1820 ± 77.9 h*%
DPP-4 inhibition Rmax ([1]; 50 mg oral, day 1): 86.39 ± 1.75%
DUR80% (duration for DPP-4 inhibition rate of >80%) ([1]; 50 mg oral, day 1): 8.39 ± 2.37 h
E24h (DPP-4 inhibition at 24 h postdose) ([1]; 50 mg oral, day 1): 68.75 ± 4.75%
DUR80% (duration for DPP-4 inhibition rate of >80%) ([1]; 50 mg oral, day 1, listed as cetagliptin): 8.39 h
DPP-4 inhibition TRmax ([1]; 50 mg oral, day 1): 2.00 (0.500-3.00) h
sustained DPP-4 inhibition (≥80%) compared with sitagliptin ([1]; 100 mg cetagliptin vs 100 mg sitagliptin, multiple administration): much longer
accumulation ratio of AUEC0-24h of DPP-4 inhibition ([1]; 100 mg once daily): ~1
DPP-4 inhibition AUEC0-24h ([1]; 100 mg oral once daily, day 14): 2090 ± 24.4 h*%
DPP-4 inhibition Rmax,ss ([1]; 100 mg oral once daily, day 14): 89.99 ± 0.91%
DPP-4 inhibition Rmin,ss ([1]; 100 mg oral once daily, day 14): 84.28 ± 1.61%
DUR80% (duration for DPP-4 inhibition rate of >80%) ([1]; 100 mg oral once daily, day 14): 32.3 ± 4.53 h
E24h (DPP-4 inhibition at 24 h postdose) ([1]; 100 mg oral once daily, day 14): 83.91 ± 1.39%
DUR80% (duration for DPP-4 inhibition rate of >80%) [1, 9]: 32.3 h
DPP-4 inhibition TRmax,ss ([1]; 100 mg oral once daily, day 14): 2.00 (1.00-3.00) h
DPP-4 inhibition AUEC0-24h ([1]; 100 mg oral, day 1): 2000 ± 41.6 h*%
DPP-4 inhibition Rmax ([1]; 100 mg oral, day 1): 88.78 ± 1.04%
DUR80% (duration for DPP-4 inhibition rate of >80%) ([1]; 100 mg oral, day 1): 21.1 ± 3.42 h
E24h (DPP-4 inhibition at 24 h postdose) ([1]; 100 mg oral, day 1): 79.75 ± 2.63%
DUR80% (duration for DPP-4 inhibition rate of >80%) ([1]; 100 mg oral, day 1, listed as cetagliptin): 21.1 h
DPP-4 inhibition TRmax ([1]; 100 mg oral, day 1): 1.00 (1.00-3.00) h
EC50 (plasma concentration producing half the maximum DPP-4 inhibition) ([2]; Emax model): 5.37 ng/mL
Emax (maximum DPP-4 inhibition, Emax model) ([2]; plasma concentration vs DPP-4 inhibition): 92.47%
GLP-1 Baseline (value before dosing) ([3]; 50 mg group): 0.491 ± 0.815 pM
accumulation ratios of Rmax and AUEC0-24 h for plasma active GLP-1 ([3]; 50 mg once daily): about 1.5
increase of plasma active GLP-1 AUEC0-24h compared with placebo group ([3]; 50 mg once daily): 2.20 fold
R0h,ss (baseline plasma active GLP-1 on day 14) ([3]; 50 mg oral once daily, day 14): 1.787 ± 1.046 pM
△GLP-1-6h (change at 2 h after lunch) ([3]; 50 mg oral once daily, day 14): 4.145 ± 0.920 pM
△GLP-1-12h (change at 2 h after dinner) ([3]; 50 mg oral once daily, day 14): 3.880 ± 1.641 pM
△GLP-1 AUEC0-24h ([3]; 50 mg oral once daily, day 14): 57.8 ± 22.7 pM·h
△GLP-1 Ravg,ss ([3]; 50 mg oral once daily, day 14): 2.408 ± 0.944 pM
△GLP-1 Rmax,ss ([3]; 50 mg oral once daily, day 14): 5.891 ± 1.692 pM
R0h,ss (baseline plasma active GLP-1 on day 14) [3, 8]: 1.787 pM
△GLP-1 TRmax,ss ([3]; 50 mg oral once daily, day 14): 5.00 (5.00-12.00) h
△GLP-1-6h (change at 2 h after lunch) ([3]; 50 mg oral, day 1): 2.457 ± 1.135 pM
△GLP-1-12h (change at 2 h after dinner) ([3]; 50 mg oral, day 1): 2.887 ± 0.981 pM
△GLP-1 AUEC0-24h ([3]; 50 mg oral, day 1): 42.6 ± 10.0 pM·h
△GLP-1 Rmax ([3]; 50 mg oral, day 1): 3.866 ± 1.031 pM
△GLP-1 TRmax ([3]; 50 mg oral, day 1): 5.00 (5.00-12.00) h
GLP-1 Baseline (value before dosing) ([3]; 100 mg group): 0.434 ± 0.393 pM
accumulation ratios of Rmax and AUEC0-24 h for plasma active GLP-1 ([3]; 100 mg once daily): about 1.5
increase of plasma active GLP-1 AUEC0-24h compared with placebo group ([3]; 100 mg once daily): 3.36 fold
R0h,ss (baseline plasma active GLP-1 on day 14) ([3]; 100 mg oral once daily, day 14): 1.858 ± 1.186 pM
△GLP-1-6h (change at 2 h after lunch) ([3]; 100 mg oral once daily, day 14): 7.006 ± 3.171 pM
△GLP-1-12h (change at 2 h after dinner) ([3]; 100 mg oral once daily, day 14): 5.648 ± 1.810 pM
△GLP-1 AUEC0-24h ([3]; 100 mg oral once daily, day 14): 88.2 ± 29.6 pM·h
△GLP-1 Ravg,ss ([3]; 100 mg oral once daily, day 14): 3.673 ± 1.234 pM
△GLP-1 Rmax,ss ([3]; 100 mg oral once daily, day 14): 7.868 ± 2.565 pM
R0h,ss (baseline plasma active GLP-1 on day 14) [3, 9]: 1.858 pM
△GLP-1 TRmax,ss ([3]; 100 mg oral once daily, day 14): 6.00 (5.00-12.00) h
△GLP-1-6h (change at 2 h after lunch) ([3]; 100 mg oral, day 1): 4.269 ± 2.232 pM
△GLP-1-12h (change at 2 h after dinner) ([3]; 100 mg oral, day 1): 3.600 ± 2.410 pM
△GLP-1 AUEC0-24h ([3]; 100 mg oral, day 1): 63.1 ± 34.3 pM·h
△GLP-1 Rmax ([3]; 100 mg oral, day 1): 6.026 ± 3.823 pM
△GLP-1 TRmax ([3]; 100 mg oral, day 1): 5.00 (5.00-12.00) h
intensity of drug-related adverse events ([4]; cetagliptin 50 or 100 mg, sitagliptin 100 mg, 14 days): mild
number of drug-related AEs [4, 10]: 3 AEs
number of subjects reporting drug-related AEs [4, 10]: 2 subjects
serious AEs or withdrawals due to AEs ([4]; once daily for 14 days): no serious AEs or withdraws due to AEs
AUC0-τ (steady state) ([5]; 50 mg): 1440 ng·h/mL
Cmax (steady state) ([5]; 50 mg): 125 ng/mL
RAUC ([5]; 50 mg): 1.72
Tmax (steady state) ([5]; 50 mg): 1.5 h
t1/2 (steady state) ([5]; 50 mg): 38.8 h
AUC0-τ (steady state) ([5]; 100 mg): 3120 ng·h/mL
Cmax (steady state) ([5]; 100 mg): 294 ng/mL
RAUC ([5]; 100 mg): 1.38
Tmax (steady state) ([5]; 100 mg): 1.0 h
t1/2 (steady state) ([5]; 100 mg): 36.6 h
sustained DPP-4 inhibition [6]: ≥ 80%
inhibition of serum DPP-4 activity [7]: ≥ 80%
